According to PubChem BioAssay (NCI):
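Step 1: Grow cells in 96-well plates. Step 2: Expose to compound for 48 hours at 5 concentrations. Step 3: Interpolate endpoints linearly; if unreached, use highest concentration. TGI denotes the concentration required for complete inhibition of growth.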

Assays:
Assay in all cases: NCI-60 cell line screen, 48 h
786-0 renal = system: 786-0 renal
A498 renal = system: A498 renal
A549 NSCLC = system: A549 NSCLC
ACHN renal = system: ACHN renal
CCRF-CEM leukemia = system: CCRF-CEM leukemia
COLO 205 colon = system: COLO 205 colon
DLD-1 colon = system: DLD-1 colon
DMS 114 small cell lung = system: DMS 114 small cell lung
DMS 273 small cell lung = system: DMS 273 small cell lung
EKVX NSCLC = system: EKVX NSCLC
HCC-2998 colon = system: HCC-2998 colon
HCT-116 colon = system: HCT-116 colon
HL-60(TB) leukemia = system: HL-60(TB) leukemia
HOP-18 NSCLC = system: HOP-18 NSCLC
HOP-62 NSCLC = system: HOP-62 NSCLC
HT29 colon = system: HT29 colon
IGROV1 ovarian = system: IGROV1 ovarian
K-562 leukemia = system: K-562 leukemia
KM12 colon = system: KM12 colon
KM20L2 colon = system: KM20L2 colon
LOX IMVI melanoma = system: LOX IMVI melanoma
LXFL 529 NSCLC = system: LXFL 529 NSCLC
M14 melanoma = system: M14 melanoma
M19-MEL melanoma = system: M19-MEL melanoma
MALME-3M melanoma = system: MALME-3M melanoma
MOLT-4 leukemia = system: MOLT-4 leukemia
NCI-H226 lung = system: NCI-H226 lung
NCI-H23 lung = system: NCI-H23 lung
NCI-H460 lung = system: NCI-H460 lung
NCI-H522 lung = system: NCI-H522 lung
OVCAR-3 ovarian = system: OVCAR-3 ovarian
OVCAR-5 ovarian = system: OVCAR-5 ovarian
OVCAR-8 ovarian = system: OVCAR-8 ovarian
RPMI-8226 leukemia = system: RPMI-8226 leukemia
RXF 393 renal = system: RXF 393 renal
SF-295 CNS = system: SF-295 CNS
SF-539 CNS = system: SF-539 CNS
SK-MEL-2 melanoma = system: SK-MEL-2 melanoma
SK-MEL-28 melanoma = system: SK-MEL-28 melanoma
SK-MEL-5 melanoma = system: SK-MEL-5 melanoma
SK-OV-3 ovarian = system: SK-OV-3 ovarian
SN12C renal = system: SN12C renal
SNB-19 CNS = system: SNB-19 CNS
SNB-75 CNS = system: SNB-75 CNS
SNB-78 CNS = system: SNB-78 CNS
SR leukemia = system: SR leukemia
SW-620 colon = system: SW-620 colon
TK-10 renal = system: TK-10 renal
U251 CNS = system: U251 CNS
UACC-257 melanoma = system: UACC-257 melanoma
UACC-62 melanoma = system: UACC-62 melanoma
UO-31 renal = system: UO-31 renal
HCT-15 colon = system: HCT-15 colon
HOP-92 NSCLC = system: HOP-92 NSCLC
OVCAR-4 ovarian = system: OVCAR-4 ovarian
SF-268 CNS = system: SF-268 CNS
XF 498 CNS = system: XF 498 CNS

Compound: C1CNCCNCCNCCN1
- TGI (786-0 renal): > 100 µM
- TGI (A498 renal): > 100 µM
- TGI (A549 NSCLC): > 100 µM
- TGI (ACHN renal): > 100 µM
- TGI (CCRF-CEM leukemia): > 100 µM
- TGI (COLO 205 colon): > 100 µM
- TGI (DLD-1 colon): > 100 µM
- TGI (DMS 114 small cell lung): > 100 µM
- TGI (DMS 273 small cell lung): > 100 µM
- TGI (EKVX NSCLC): > 100 µM
- TGI (HCC-2998 colon): > 100 µM
- TGI (HCT-116 colon): > 100 µM
- TGI (HL-60(TB) leukemia): > 100 µM
- TGI (HOP-18 NSCLC): > 100 µM
- TGI (HOP-62 NSCLC): > 100 µM
- TGI (HT29 colon): > 100 µM
- TGI (IGROV1 ovarian): > 100 µM
- TGI (K-562 leukemia): > 100 µM
- TGI (KM12 colon): > 100 µM
- TGI (KM20L2 colon): > 100 µM
- TGI (LOX IMVI melanoma): > 100 µM
- TGI (LXFL 529 NSCLC): > 100 µM
- TGI (M14 melanoma): > 100 µM
- TGI (M19-MEL melanoma): > 100 µM
- TGI (MALME-3M melanoma): > 100 µM
- TGI (MOLT-4 leukemia): > 100 µM
- TGI (NCI-H226 lung): > 100 µM
- TGI (NCI-H23 lung): > 100 µM
- TGI (NCI-H460 lung): > 100 µM
- TGI (NCI-H522 lung): > 100 µM
- TGI (OVCAR-3 ovarian): > 100 µM
- TGI (OVCAR-5 ovarian): > 100 µM
- TGI (OVCAR-8 ovarian): > 100 µM
- TGI (RPMI-8226 leukemia): > 100 µM
- TGI (RXF 393 renal): > 100 µM
- TGI (SF-295 CNS): > 100 µM
- TGI (SF-539 CNS): > 100 µM
- TGI (SK-MEL-2 melanoma): > 100 µM
- TGI (SK-MEL-28 melanoma): > 100 µM
- TGI (SK-MEL-5 melanoma): > 100 µM
- TGI (SK-OV-3 ovarian): > 100 µM
- TGI (SN12C renal): > 100 µM
- TGI (SNB-19 CNS): > 100 µM
- TGI (SNB-75 CNS): > 100 µM
- TGI (SNB-78 CNS): > 100 µM
- TGI (SR leukemia): > 100 µM
- TGI (SW-620 colon): > 100 µM
- TGI (TK-10 renal): > 100 µM
- TGI (U251 CNS): 81.5 µM
- TGI (UACC-257 melanoma): > 100 µM
- TGI (UACC-62 melanoma): > 100 µM
- TGI (UO-31 renal): > 100 µM

Compound: COc1ccc2c([nH]c3cc(O)c(C)cc32)c1C=O
- TGI (786-0 renal): > 25 µM
- TGI (A549 NSCLC): > 25 µM
- TGI (ACHN renal): > 25 µM
- TGI (CCRF-CEM leukemia): > 25 µM
- TGI (COLO 205 colon): > 25 µM
- TGI (DLD-1 colon): > 25 µM
- TGI (DMS 114 small cell lung): > 25 µM
- TGI (DMS 273 small cell lung): > 25 µM
- TGI (HCC-2998 colon): > 25 µM
- TGI (HCT-116 colon): > 25 µM
- TGI (HCT-15 colon): > 25 µM
- TGI (HL-60(TB) leukemia): > 25 µM
- TGI (HOP-62 NSCLC): > 25 µM
- TGI (HOP-92 NSCLC): > 25 µM
- TGI (HT29 colon): > 25 µM
- TGI (IGROV1 ovarian): > 25 µM
- TGI (K-562 leukemia): > 25 µM
- TGI (KM12 colon): > 25 µM
- TGI (KM20L2 colon): > 25 µM
- TGI (LOX IMVI melanoma): > 25 µM
- TGI (LXFL 529 NSCLC): > 25 µM
- TGI (M14 melanoma): > 25 µM
- TGI (M19-MEL melanoma): > 25 µM
- TGI (MALME-3M melanoma): > 25 µM
- TGI (MOLT-4 leukemia): > 25 µM
- TGI (NCI-H226 lung): > 25 µM
- TGI (NCI-H460 lung): > 25 µM
- TGI (NCI-H522 lung): > 25 µM
- TGI (OVCAR-3 ovarian): > 25 µM
- TGI (OVCAR-4 ovarian): > 25 µM
- TGI (OVCAR-5 ovarian): > 25 µM
- TGI (OVCAR-8 ovarian): > 25 µM
- TGI (RPMI-8226 leukemia): > 25 µM
- TGI (RXF 393 renal): > 25 µM
- TGI (SF-268 CNS): > 25 µM
- TGI (SF-539 CNS): > 25 µM
- TGI (SK-MEL-2 melanoma): > 25 µM
- TGI (SK-MEL-28 melanoma): > 25 µM
- TGI (SK-MEL-5 melanoma): > 25 µM
- TGI (SK-OV-3 ovarian): > 25 µM
- TGI (SN12C renal): > 25 µM
- TGI (SNB-19 CNS): > 25 µM
- TGI (SNB-78 CNS): > 25 µM
- TGI (SR leukemia): > 25 µM
- TGI (SW-620 colon): > 25 µM
- TGI (TK-10 renal): > 25 µM
- TGI (U251 CNS): > 25 µM
- TGI (UACC-62 melanoma): > 25 µM
- TGI (UO-31 renal): > 25 µM
- TGI (XF 498 CNS): > 25 µM
